This is an account of results in PMC9388600, “Uncovering the roles of dihydropyrimidine dehydrogenase in fatty-acid induced steatosis using human cellular models” (Scientific Reports, 2022).

Experiment [1] deals with T1, Dihydropyrimidine dehydrogenase (DPYD) (Homo sapiens, UniProt Q12882).
T1 sequence (Q12882 4-1025): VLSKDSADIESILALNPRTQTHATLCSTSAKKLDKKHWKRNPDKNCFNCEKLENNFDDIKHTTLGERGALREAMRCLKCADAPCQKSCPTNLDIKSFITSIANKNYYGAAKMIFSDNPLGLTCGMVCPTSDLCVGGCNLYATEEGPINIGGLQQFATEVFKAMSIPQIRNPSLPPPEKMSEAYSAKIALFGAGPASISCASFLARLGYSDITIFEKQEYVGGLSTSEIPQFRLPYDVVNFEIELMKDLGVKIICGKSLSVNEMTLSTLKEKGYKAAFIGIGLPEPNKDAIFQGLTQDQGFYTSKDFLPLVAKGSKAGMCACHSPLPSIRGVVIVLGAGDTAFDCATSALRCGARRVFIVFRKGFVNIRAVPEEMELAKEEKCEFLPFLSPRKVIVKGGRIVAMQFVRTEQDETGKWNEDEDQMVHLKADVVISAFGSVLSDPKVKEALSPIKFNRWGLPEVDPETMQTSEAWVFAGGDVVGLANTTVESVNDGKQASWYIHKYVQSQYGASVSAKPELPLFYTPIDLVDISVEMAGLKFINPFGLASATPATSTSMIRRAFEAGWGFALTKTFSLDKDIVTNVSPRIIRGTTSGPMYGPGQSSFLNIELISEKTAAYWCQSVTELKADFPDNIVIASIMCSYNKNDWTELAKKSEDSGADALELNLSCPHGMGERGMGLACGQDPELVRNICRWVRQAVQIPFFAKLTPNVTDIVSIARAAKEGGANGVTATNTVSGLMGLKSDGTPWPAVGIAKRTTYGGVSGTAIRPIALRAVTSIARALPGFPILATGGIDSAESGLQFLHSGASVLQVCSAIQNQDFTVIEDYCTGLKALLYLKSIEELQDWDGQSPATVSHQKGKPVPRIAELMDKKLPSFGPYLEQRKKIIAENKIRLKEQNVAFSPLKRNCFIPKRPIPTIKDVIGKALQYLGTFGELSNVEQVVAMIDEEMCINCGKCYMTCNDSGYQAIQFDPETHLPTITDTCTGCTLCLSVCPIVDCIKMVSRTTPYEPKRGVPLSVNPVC
Description: uracil accumulation in media of primary human hepatocytes treated with inhibitor, LC/MS/MS (endogenous DPYD). The experiment is classed as cell-based.

For experiment [2], the target named is T2, Dihydropyrimidine dehydrogenase (DPYD) (Homo sapiens, UniProt Q12882, L310S).
T2 construct: recombinant L310S mutant DPYD, expressed from pET28a(+) in E. coli
T2 sequence (Q12882 4-1025 L310S): T1 sequence (Q12882 4-1025) with L307S
The experiment can be described thus: steady-state kinetics of purified mutant enzyme, fluorometric NADPH depletion; substrate inhibition model (kcat). The class given is biochemical.

Experiment [3] addresses T1, Dihydropyrimidine dehydrogenase (DPYD). Description: steady-state kinetics of purified enzyme, fluorometric NADPH depletion; substrate inhibition model (kcat). Further details: recombinant wild type DPYD, expressed from pET28a(+) in E. coli. The class given is biochemical. On the procedure: steady-state kinetics of purified enzyme, fluorometric NADPH depletion; substrate inhibition model (kcat) on Dihydropyrimidine dehydrogenase (DPYD) | The kinetic measurements of DPYD were carried out by varying concentrations of uracil.

By pIC50 is commonly meant the IC50 on a negative log10 scale, so that one unit is a factor of ten. Lower therefore signals a large IC50.

Each structure is given as a SMILES string. Numbering of substitutions follows the chain as printed. pIC50: −log10 of the molar value.

As for `Oc1cc(O)c(Cl)cn1` [Gimeracil], the pIC50 in experiment [1] is 7.25.

With `O=c1cc[nH]c(=O)[nH]1` [uracil], the “steady-state kinetics of purified mutant enzyme, fluorometric NADPH depletion; s” value in experiment [2] is 99 ± 5 min⁻¹. Moreover, the “steady-state kinetics of purified enzyme, fluorometric NADPH depletion; substrat” value in experiment [3] was 65 ± 4 min⁻¹.
